The text below walks through data of patent US9872919B2, “Prodrugs for selective anticancer therapy” (THE RESEARCH FOUNDATION FOR THE STATE UNIVERSITY OF NEW YORK, priority 2012, dated 2018).

Test [1] relates to malignant cell lines with high HDAC and CTSL activity (COGA-10, HCA-7, HT29, HCT116). Description: MTS cell viability assay, malignant colon cancer cell lines. Format: cell-based, human. To be noted: 5 d, panel of colon cell lines, given as a range, read-out: IC50, inhibition of cell viability. How it is done:
FIG. 13. Inhibition of cell viability by BKAc-Puro is presented in dose-response curve format for the same cell lines as in FIG. 8. The cell lines were treated with DMSO or the indicated doses of agent (4.22, 8.44, 16.9, 33.8, 67.5, or 135 μM) for 5 d followed by MTS assay. Data represent mean values of triplicate mesurements±s.d. (n=3). IC50 values were fit by logistic regression.
(§1) Cell number was determined by cell counting using improved Neubauer hemacytometer. Cell viability was calculated as the number of viable cells divided by the total number of cells using Trypan Blue Stain (Invitrogen) to distinguish non-viable cells. Data were obtained from duplicated samples with quadruplicate measurements. MTS based cell viability assay was performed using CellTiter 96 Aqueous Cell Proliferation Assay (Promega) according to the manufacturer's instruction. […] After additional 2-3 h incubation, the absorbance of the formazan at 490 nm was measured by the microplate reader. […] Determination of non-viable cells using PI staining was performed by adding 1 μg/ml of PI solution (Sigma) to the cell culture, prior to the examination under fluorescence microscopy (Axiovert 3, Carl Zeiss) through a×32 objective equipped with a digital imaging processor (Infinity 3, Lumenera).
Background: Tetrazolium assays rely on reduction of a dye to a coloured formazan, in cell work by metabolically active cells.

Another test has as its system CCD841-CoN cells. Put plainly: MTS cell viability assay, normal colon cells. Type of test: cell-based, human. The settings on record: negative control in pancreatic and prostate panels. Here is the method:
FIG. 15. Inhibition of cell viability by BKAc-Puro. The cell lines were grown and analyzed as in FIG. 12.
FIG. 18. Selective cytotoxicity by BKAc-Puro on pancreatic cancer cells. Pancreatic cancer (BXPC-3 and Miapaca-2), colon cancer (HCT116 as a positive control sensitive to the drug), and normal colon (CCD841-CoN as a negative control) cells were grown and analyzed as in FIG. 13. BKAc-Puro can effectively cause cell death on pancreatic cancer cells (BXPC-3 and MiaPaca-2) that are known to resistant to conventional chemotherapeutic drugs including 5-FU and Gemicitabine.
(§2) FIG. 19. Selective cytotoxicity by BKAc-Puro on prostate cancer cells. Prostate cancer (PC-3, DU-145, and LNCaP), colon cancer (HCT116 as a positive control sensitive to the drug), and normal colon (CCD841-CoN as a negative control) cells were grown and analyzed as in FIG. 13. BKAc-Puro can effectively cause cell death on prostate cancer cells.
Cell number was determined by cell counting using improved Neubauer hemacytometer. Cell viability was calculated as the number of viable cells divided by the total number of cells using Trypan Blue Stain (Invitrogen) to distinguish non-viable cells. Data were obtained from duplicated samples with quadruplicate measurements. […] After additional 2-3 h incubation, the absorbance of the formazan at 490 nm was measured by the microplate reader. […]

Test [2] has as its system non-malignant Caco-2 cells. Description: Cell number determination, Caco-2. Format: cell-based, human. To be noted: 54 μM, 5 d. Here is the method: FIG. 9. The colon cancer cell lines were grown for 5 d either with vehicle control DMSO (gray symbols) or 54 μM BKAc-Puro (red and blue symbols), and cell number was determined at the indicated time points.
as §1, with “instruction. Either 1 μl of DMSO alone or variable concentrations of BKAc-Puro or Puro in DMSO were added to the cell lines seeded at 5×10^4 cells per well in 96-well tissue culture plates in 100 μl of the growth medium, followed by 3-5 d incubation at 37° C. with 5% CO2 atmosphere.” for “instruction.”

Test [3] relates to normal mammary gland epithelial cells (Eph4). Description: PI staining cytotoxicity, normal mammary gland epithelial cells. Format: cell-based, mouse. How it is done:
FIG. 17. Selective cytotoxicity by BKAc-Puro on breast cancer cells. Normal mammary gland epithelial cells (Eph4) and breast cancer cells (MCF-7 and MDA-MB-231) were grown and analyzed as in FIG. 10. BF, bright field. PI, fluorescent PI channel. BKAc-Puro can selectively cause cell death in breast cancer cells (MCF-7 and MDA-MB-231) while leaving normal Eph4 cells unharmed.
as §1

In test [4] the test system is prostate cancer cells (PC-3, DU-145 and LNCaP). Put plainly: Cytotoxicity on prostate cancer cells (MTS). Format: cell-based, human. How it is done:
as §2, §1

The subject of test [5] is HT29 xenograft tumor, muscle and kidney. Description: Immunological detection of Puro-labeled proteins in tissues of HT29 xenograft mice. Type of test: in vivo. The settings on record: 150 mg/kg/dose daily intraperitoneal for 3 d. Here is the method:
FIG. 29. In vivo anticancer efficacy of Boc-KAc-Puro. (a) Tumor growth in HCT116 xenograft model. Animals were treated with acidified saline control or Boc-KAc-Puro (50 or 150 mg/kg). Values are mean±s.d. (n=5 mice per group). ***P<0.001 compared to the control group. P=0.000716 (50 mg/kg), P=0.000349 (150 mg/kg) at 10 d. (b) Body weight change during the treatment in a was monitored as a sign of general animal health. Values are mean±s.d. (c) Tumor growth in HT29 xenograft model. Animals were treated with acidified saline control or Boc-KAc-Puro (150 mg/kg). Values are mean±s.d. (n=5 mice per group). ***P<0.001 compared to the control group. P=0.000514 (150 mg/kg) at 10 d. (d) Body weight change during the treatment in c was monitored as a sign of general animal health. Values are mean±s.d. (e) Levels of Puro-incorporated proteins were monitored by immunoblotting. […]
Cultured cells or tissue samples were sonicated in RIPA lysis buffer (1% NP-40, 0.1% SDS, 50 mM Tris-HCl pH 7.4, 150 mM NaCl, 0.5% sodium deoxycholate, 1 mM EDTA) supplemented with PMSF and protease inhibitor cocktail (Roche) on ice followed by clarification. […] Proteins of interest were detected with anti-mouse secondary antibody by chemiluminescence (ECL Kit, GE Healthcare Life Sciences). […]

A word on the IC50: it is the concentration needed to halve the response being measured. In the case of `COc1ccc(C[C@H](NC(=O)[C@H](CCCCNC(C)=O)NC(=O)OC(C)(C)C)C(=O)N[C@H]2[C@@H](O)[C@H](n3cnc4c(N(C)C)ncnc43)O[C@@H]2CO)cc1` [BKAc-Puro, N-[3′-(α-Amino-p-methoxyhydrocinnamamido)-3′-deoxy-N,N-dimethyldenosinyl]-N-α-(t-butoxycarbonyl)-N-ε-acetyl-L-lysineamide], the IC50 in test [1] is ~10 µM. Moreover, the “effect on normal colon cells” value in the test with CCD841-CoN cells is reported as “relatively little effect”. The “cell proliferation (cell number)” value in test [2] is recorded as “allowed them to proliferate to confluency”. Besides, the cell death entry in test [3] is recorded as “unharmed”; in test [4], “effectively caused cell death”. For the same molecule, the “intensity of Puro incorporation in tissues” value in test [5] was “substantially greater in tumors compared with normal muscle and kidney”.
